Source: ChEMBL document CHEMBL1201862, “PubChem BioAssay data set” (2004)
Calls of active or inactive are those of the source.

Experiments:
[1] = OVCAR8 cell viability loss – plate reader, dry powder samples, PAX8 project, dose response (AID 743197); type: functional, cell-based; conditions: OVCAR-8
[2] = toxicity to human hepatoma HepG2 cells – cell-based, cherry-picked samples, cytotoxicity control, dose response (AID 1159577); type: functional
[3] = general cell-killing toxicity readout – plate reader, dry powder samples, cytotoxicity control for PAX8 inhibitor project, dose response (AID 743021); type: functional, cell-based
[4] = P. falciparum Dd2 growth inhibitors, dose response, SYBR Green, cherry-picked samples (AID 1159567); type: functional, cell-based
[5] = IGROV1 cell killing – plate reader, dry powder samples, PAX8 inhibitor project, dose response (AID 743043); type: functional, cell-based; conditions: IGROV-1
[6] = target: Paired box protein Pax-8 (Homo sapiens, UniProt Q06710); assay: PAX8 transcriptional activity inhibition in RMG-I – RMG-I cells, luciferase, cherry-pick, dose response (AID 687027); type: functional, cell-based;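 further: luciferase reporter driven by Pax8 target thyroperoxidase promoter measured by SteadyGlo luminescence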
[7] = OVCAR-3 cell viability loss – plate reader, dry powder samples, PAX8 inhibitor project, dose response (AID 743044); type: functional, cell-based
[8] = toxicity toward HepG2 liver cells – cell-based, plate reader, cherry-pick, antagonist series, cytotoxicity control, dose response (AID 743416); type: functional
[9] = Luminescence Cell-Based Dose Confirmation HTS to Identify Inhibitors of Platelet Dense Granule Release. [Related pubchem assays: 1663 (Primary HTS), 1678 (Summary of Project)]; type: functional
[10] = blockers of bursicon-stimulated LGR2 cAMP reporter – cell-based, HEK293, CRE-luciferase reporter, cherry pick, set 2, dose response (AID 743343); type: functional;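 further: transfected cells were stimulated with diluted bursicon conditioned medium after compound addition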
[11] = target: Luciferin 4-monooxygenase (Photinus pyralis, UniProt P08659); assay: inhibition of purified Photinus pyralis luciferase – biochemical, luminescence, dose response (AID 1891)
[12] = A549 cell cytotoxicity, dose response, cytotoxicity control, plate reader, cherry-pick, antagonist series (AID 743412); type: functional, cell-based
[13] = blockade of melanocortin 4 receptor signaling – cell-based, plate reader, cherry pick, counter-screen for LGR2 antagonist project, dose response (AID 743444); type: functional;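 further: transfected HEK 293 cells stimulated with alpha-MSH peptide; potency of inhibitors of the alpha-MSH evoked signal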
[14] = viability loss in HEK293 cells – cell-based, plate reader, cherry-picked samples, cytotoxicity control, dose response (AID 743446); type: functional
[15] = system: INS1; assay: INS-1E survival protection against cytokine death – cell-based, luminescence, retest, dose response (AID 449756); type: functional; conditions: Rattus norvegicus;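 further: cell death triggered by IL-1 beta plus TNF-alpha plus IFN-gamma mixture; protective hits raise ATP signal compared with cytokine alone wells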
[16] = system: HEK293; assay: cells; type: functional, cell-based; conditions: Homo sapiens
[17] = target: Galanin receptor type 3 (Homo sapiens, UniProt O60755); assay: Fluorescence-based cell-based primary high throughput dose response assay to identify antagonists of the Galanin Receptor 3 (GalR3).; type: functional
[18] = target: Tumor necrosis factor (Homo sapiens, UniProt P01375); assay: analog potency on TNFa NF-kB signaling – cell-based, revised, SAR follow-up (AID 2337); type: functional
[19] = system: HEK293; assay: inhibition of NOD1-driven NF-kB reporter – cell-based, luminescence, uHTS, primary screen (AID 1578); type: functional; conditions: Homo sapiens
[20] = target: T1, Nucleotide-binding oligomerization domain-containing protein 1 (Homo sapiens, UniProt Q9Y239); assay: blockers of NOD1 pathway activity – revised, SAR follow-up (AID 2333); type: functional
T1 sequence (Q9Y239 whole entry): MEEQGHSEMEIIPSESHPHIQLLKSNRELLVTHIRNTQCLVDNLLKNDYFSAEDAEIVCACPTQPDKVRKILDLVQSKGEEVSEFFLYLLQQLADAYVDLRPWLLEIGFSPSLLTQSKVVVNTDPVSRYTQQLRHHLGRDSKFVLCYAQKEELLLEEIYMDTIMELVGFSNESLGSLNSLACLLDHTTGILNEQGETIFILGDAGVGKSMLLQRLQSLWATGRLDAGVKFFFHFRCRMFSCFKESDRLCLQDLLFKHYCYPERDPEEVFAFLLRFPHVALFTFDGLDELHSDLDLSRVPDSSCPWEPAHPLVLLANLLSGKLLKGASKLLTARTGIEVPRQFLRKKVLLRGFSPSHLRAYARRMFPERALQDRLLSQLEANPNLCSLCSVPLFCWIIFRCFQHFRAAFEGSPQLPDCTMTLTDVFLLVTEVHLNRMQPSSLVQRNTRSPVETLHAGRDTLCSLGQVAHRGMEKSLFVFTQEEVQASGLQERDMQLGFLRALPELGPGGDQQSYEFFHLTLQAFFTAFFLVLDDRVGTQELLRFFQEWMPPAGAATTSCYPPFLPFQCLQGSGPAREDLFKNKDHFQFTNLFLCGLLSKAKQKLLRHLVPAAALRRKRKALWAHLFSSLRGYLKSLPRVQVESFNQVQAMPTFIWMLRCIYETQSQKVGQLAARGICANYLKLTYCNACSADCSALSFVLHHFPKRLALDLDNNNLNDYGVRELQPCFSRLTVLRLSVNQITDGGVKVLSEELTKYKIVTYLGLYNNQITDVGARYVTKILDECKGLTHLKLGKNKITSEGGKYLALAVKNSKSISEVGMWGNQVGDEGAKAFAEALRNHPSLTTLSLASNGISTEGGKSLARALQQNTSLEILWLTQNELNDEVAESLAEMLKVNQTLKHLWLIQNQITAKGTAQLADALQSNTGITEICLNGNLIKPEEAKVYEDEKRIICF

[21] = system: HEK293; assay: cells; type: functional, cell-based; conditions: Homo sapiens; remark: listed apart in the source
[22] = cells; type: functional, cell-based; conditions: HEK-CNG
[23] = system: HEK293; assay: NOD2 signaling inhibitors in MDP-stimulated cells, cell-based, uHTS, luminescence (AID 2001); type: functional; conditions: Homo sapiens
[24] = system: HEK293; assay: cells; conditions: Homo sapiens
[25] = target: T2, COUP transcription factor 2 (Homo sapiens, UniProt P24468); assay: Luminescence-based cell-based high throughput dose response assay to identify inhibitors of COUP-TFII (NR2F2).; type: functional;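 further: HEK293 cells transiently cotransfected with COUP-TFII expression vector and reporter; luciferase reporter luminescence driven by COUP-TFII from the pX2-168 reporter plasmid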
T2 sequence (P24468 whole entry): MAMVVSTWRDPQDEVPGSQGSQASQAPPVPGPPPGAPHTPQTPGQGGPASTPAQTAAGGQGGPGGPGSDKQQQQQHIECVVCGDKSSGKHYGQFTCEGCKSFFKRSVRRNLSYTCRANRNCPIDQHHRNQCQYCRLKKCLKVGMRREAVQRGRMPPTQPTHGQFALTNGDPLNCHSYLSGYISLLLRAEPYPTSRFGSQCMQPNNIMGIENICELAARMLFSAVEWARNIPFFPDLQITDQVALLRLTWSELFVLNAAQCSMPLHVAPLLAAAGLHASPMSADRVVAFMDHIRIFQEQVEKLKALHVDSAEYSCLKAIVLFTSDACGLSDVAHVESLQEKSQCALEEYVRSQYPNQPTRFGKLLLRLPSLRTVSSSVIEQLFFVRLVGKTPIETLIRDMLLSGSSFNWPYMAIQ

Sequence of Paired box protein Pax-8 (Q06710 whole entry): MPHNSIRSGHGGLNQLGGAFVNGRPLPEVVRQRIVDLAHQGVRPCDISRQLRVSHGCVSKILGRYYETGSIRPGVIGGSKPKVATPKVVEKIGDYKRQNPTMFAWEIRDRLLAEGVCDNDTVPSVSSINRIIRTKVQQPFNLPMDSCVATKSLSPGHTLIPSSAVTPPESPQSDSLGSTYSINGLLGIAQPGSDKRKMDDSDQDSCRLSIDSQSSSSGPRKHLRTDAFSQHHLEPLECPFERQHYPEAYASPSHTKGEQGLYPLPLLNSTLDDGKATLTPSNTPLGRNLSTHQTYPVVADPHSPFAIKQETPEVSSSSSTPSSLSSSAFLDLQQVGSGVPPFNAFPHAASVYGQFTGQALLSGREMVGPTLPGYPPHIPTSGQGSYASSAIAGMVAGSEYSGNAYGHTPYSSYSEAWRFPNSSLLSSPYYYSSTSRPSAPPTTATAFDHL
Sequence of Tumor necrosis factor (P01375 whole entry): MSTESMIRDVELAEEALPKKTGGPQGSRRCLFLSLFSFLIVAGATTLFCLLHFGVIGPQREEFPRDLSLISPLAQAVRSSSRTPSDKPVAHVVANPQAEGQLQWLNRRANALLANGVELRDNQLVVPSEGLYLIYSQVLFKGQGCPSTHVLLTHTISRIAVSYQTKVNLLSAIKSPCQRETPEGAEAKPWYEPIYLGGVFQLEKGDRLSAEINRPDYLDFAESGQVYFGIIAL
Sequence of Luciferin 4-monooxygenase (P08659 whole entry): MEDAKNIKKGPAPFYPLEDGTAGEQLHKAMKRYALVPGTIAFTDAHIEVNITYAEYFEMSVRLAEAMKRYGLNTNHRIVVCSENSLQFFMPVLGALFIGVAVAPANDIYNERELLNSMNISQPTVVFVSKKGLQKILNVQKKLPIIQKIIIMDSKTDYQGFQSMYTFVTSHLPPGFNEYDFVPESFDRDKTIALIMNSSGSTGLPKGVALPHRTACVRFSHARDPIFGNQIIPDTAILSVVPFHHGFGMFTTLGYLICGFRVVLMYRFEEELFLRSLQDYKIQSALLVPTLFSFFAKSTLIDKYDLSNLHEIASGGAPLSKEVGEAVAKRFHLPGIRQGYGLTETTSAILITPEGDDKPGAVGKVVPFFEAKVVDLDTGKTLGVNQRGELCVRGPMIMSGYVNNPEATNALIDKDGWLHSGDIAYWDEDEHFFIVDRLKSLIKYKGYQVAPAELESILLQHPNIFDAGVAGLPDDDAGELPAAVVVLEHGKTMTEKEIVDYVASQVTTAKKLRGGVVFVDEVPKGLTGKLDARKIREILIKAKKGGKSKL
Sequence of Galanin receptor type 3 (O60755 whole entry): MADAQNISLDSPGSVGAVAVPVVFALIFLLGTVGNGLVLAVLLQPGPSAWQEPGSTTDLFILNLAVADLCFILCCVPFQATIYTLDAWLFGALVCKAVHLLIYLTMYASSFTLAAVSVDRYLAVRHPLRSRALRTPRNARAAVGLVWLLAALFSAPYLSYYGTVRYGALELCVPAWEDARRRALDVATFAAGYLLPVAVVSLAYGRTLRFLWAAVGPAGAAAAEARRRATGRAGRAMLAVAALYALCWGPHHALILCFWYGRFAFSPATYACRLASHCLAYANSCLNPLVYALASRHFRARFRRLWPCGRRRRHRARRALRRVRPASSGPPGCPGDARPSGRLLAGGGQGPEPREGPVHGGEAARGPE

With `O=C1CN(S(=O)(=O)Cc2ccccc2)C[C@@H]2[C@@H](c3ccc(C#Cc4ccc(F)cc4)cc3)[C@@H](CO)N12` as the compound, how does the AC50 [1] read?
The AC50 was 35.9 µM (active).

What about the AC50 [2] of the same compound?
Its AC50 is 9.1 µM (active).

What about the AC50 [3] of the same compound?
The AC50 was 18.5 µM (active).

And the AC50 [4]?
Its AC50 is 5.57 µM (active).

And the AC50 [5]?
The AC50 was 17.4 µM (active).

And the AC50 [6]?
The AC50 was 4.64 µM (active).

With `COc1ccc(S(=O)(=O)Nc2ccc3c(c2)C(=O)N([C@@H](C)CO)C[C@H](C)[C@@H](CN(C)C(=O)Nc2ccc(C(F)(F)F)cc2)OCCCC[C@@H](C)O3)cc1` as the compound, how does the AC50 [1] read?
The AC50 was 29.6 µM (active).

And the AC50 [7]?
The AC50 was 20.5 µM (active).

What about the AC50 [5] of the same compound?
Its AC50 is 41.5 µM (active).

What about the AC50 [6] of the same compound?
Its AC50 is 9.96 µM (active).

With `Cc1cccc(NC(=O)c2ccc3c(c2)OCCO3)c1` as the compound, how does the AC50 [8] read?
Its AC50 is > 52 µM (inactive).

And the EC50 [9]?
Its EC50 is 6.74 µM (active).

And the AC50 [10]?
Its AC50 is 7.92 µM (active).

What about the EC50 [11] of the same compound?
The EC50 was 6.2 µM (active).

What about the AC50 [12] of the same compound?
Its AC50 is > 52 µM (inactive).

And the AC50 [13]?
Its AC50 is 9.29 µM (active).

What about the AC50 [14] of the same compound?
Its AC50 is > 52 µM (inactive).

Which results are given for `C=CCC1(CC=C)CCCN1C(=O)c1cc(COc2ccc(C)nc2)on1`?
AC50 [15]: 2.13 µM (active); IC50 [16]: 14.1 µM (active); IC50 [17]: 1.25 µM (active); IC50 [18]: 4.24 µM (active); EC50 [19]: 2.7 µM (active); IC50 [20]: 2.67 µM (active); IC50 [21]: 4.44 µM (active); EC50 [22]: > 29.9 µM (inactive); IC50 [23]: 7.3 µM (active); IC50 [24]: 19 µM (active); IC50 [25]: 11.8 µM (inactive)
